Values quoted from earlier work in patent US9999656B2, “Treatment of short bowel syndrome patients with colon-in-continuity” (Shire-NPS Pharmaceuticals, Inc., priority 2004, dated 2018).

Tests used:
[1] = GLP-2; approximately; cited from earlier work
SBS jejunostomy patients = details: cited from earlier work

For glucagon-like peptide-2 [native GLP-2], the half-life [1] is listed as “approximately seven”, the “effect on wet weight absorption” value (SBS jejunostomy patients; native GLP-2 400 μg twice daily for 35 days, p=0.040) is listed as 420 ± 480 g/day and the “intestinal wet weight absorption (in words)” value (SBS jejunostomy patients; open-label study, pharmacologic doses, SBS jejunostomy patients (Jeppesen et al.)) is listed as “significant improvement in intestinal wet weight absorption”.
